What was measured:
[1] = log P by HPLC on reversed-phase columns (C 18), EEC Directive 79/831 Annex V.A8; format: physicochemical; conditions: reversed-phase C18 HPLC column, pH 2.3, [a] HPLC, acid region pH 2.3, 0.1% aqueous phosphoric acid and acetonitrile; read-out: log p
Alternaria solani = experiment: Alternaria test (tomato)/protective; format: in vivo; conditions: 72 h, 100 ppm active substance, protective, evaluation 3 days after inoculation, read-out: degree of effectiveness
Protocol: (§1) • Solvents: 24.5 parts by weight of acetone • 24.5 parts by weight of dimethylacetamide • Emulsifier: 1 part by weight of alkylaryl polyglycol ether (polyoxyethylene (16) tristearylphenyl ether)
(§2) To prepare a suitable active substance composition, 1 part by weight of active substance is mixed with the given amounts of solvents and emulsifier and the concentrate is diluted to the desired concentration using water.
For the testing of protective effectiveness, young plants are sprayed with the active substance composition in the application rate given. After the spray coating has been dried on, the plants are inoculated with an aqueous suspension of spores of Alternaria solani. The plants are then placed in an incubation chamber at approximately 20° C. and 100% relative humidity.
Evaluation is carried out 3 days after the inoculation. In this connection, 0% means a degree of effectiveness corresponding to that of the control, while a degree of effectiveness of 100% means that no infestation is observed.

Uromyces appendiculatus = experiment: Uromyces test (beans)/protective; format: in vivo; conditions: 240 h, 100 ppm active substance, protective, evaluation 10 days after inoculation, read-out: degree of effectiveness
Protocol: as §1, §2
For the testing of protective effectiveness, young plants are sprayed with the active substance composition in the application rate given. After the spray coating has been dried on, the plants are inoculated with an aqueous suspension of the spores of the bean rust pathogen Uromyces appendiculatus and then remain in an incubation chamber at approximately 20° C. and 100% relative humidity for 1 day.
The plants are then placed in a greenhouse at approximately 21° C. and a relative humidity of approximately 90%.
Evaluation is carried out 10 days after the inoculation. In this connection, 0% means a degree of effectiveness corresponding to that of the control, while a degree of effectiveness of 100% means that no infestation is observed.

Sphaerotheca fuliginea = experiment: Sphaerotheca test (cucumber)/protective; format: in vivo; conditions: Podosphaera fuliginea, 168 h, 500 ppm active substance, protective, evaluation 7 days after inoculation, read-out: degree of effectiveness
Protocol: • Solvents: 49 parts by weight of N,N-dimethylformamide • Emulsifier: 1 part by weight of alkylaryl polyglycol ether (polyoxyethylene (16) tristearylphenyl ether) To prepare a suitable active substance composition, 1 part by weight of active substance is mixed with the given amounts of solvents and emulsifier and the concentrate is diluted to the desired concentration using water. For the testing of protective effectiveness, young cucumber plants are sprayed with the active substance composition in the application rate given. One day after the treatment, the plants are inoculated with a suspension of spores of Sphaerotheca fuliginea. Subsequently, the plants are placed in a greenhouse at 70% relative humidity and at a temperature of 23° C. Evaluation is carried out 7 days after the inoculation. In this connection, 0% means a degree of effectiveness corresponding to that of the control, while a degree of effectiveness of 100% means that no infestation is observed.

Puccinia triticina = Puccinia triticina test (wheat)/protective; format: in vivo; conditions: 192 h, 500 ppm active substance, protective, evaluation 8 days after inoculation, read-out: degree of effectiveness
Protocol: • Solvent: 50 parts by weight of N,N-dimethylacetamide • Emulsifier: 1 part by weight of alkylaryl polyglycol ether (polyoxyethylene (16) tristearylphenyl ether) To prepare a suitable active substance composition, 1 part by weight of active substance is mixed with the given amounts of solvent and emulsifier and the concentrate is diluted to the desired concentration using water. For the testing of protective effectiveness, young plants are sprayed with the active substance composition in the application rate given. After the spray coating has been dried on, the plants are sprayed with spores with a suspension of spores of Puccinia triticina. The plants remain in an incubation chamber at 20° C. and 100% relative humidity for 48 hours. The plants are placed in a greenhouse at a temperature of approximately 20° C. and a relative humidity of approximately 80%. Evaluation is carried out 8 days after the inoculation. In this connection, 0% means a degree of effectiveness corresponding to that of the control, while a degree of effectiveness of 100% means that no infestation is observed.

Septoria tritici = Septoria tritici test (wheat)/protective; format: in vivo; conditions: Zymoseptoria tritici, 504 h, 500 ppm active substance, protective, evaluation 21 days after inoculation, read-out: degree of effectiveness
Protocol: • Solvent: 50 parts by weight of N,N-dimethylacetamide • Emulsifier: 1 part by weight of alkylaryl polyglycol ether (polyoxyethylene (16) tristearylphenyl ether) To prepare a suitable active substance composition, 1 part by weight of active substance is mixed with the given amounts of solvent and emulsifier and the concentrate is diluted to the desired concentration using water. For the testing of protective effectiveness, young plants are sprayed with the active substance composition at the application rate given. After the spray coating has dried on, the plants are sprayed with a suspension of spores of Septoria tritici. The plants remain in an incubation chamber at 20° C. and 100% relative humidity for 48 hours. The plants are afterwards placed under a transparent hood at 15° C. and 100% relative humidity for a further 60 hours. The plants are placed in a greenhouse at a temperature of approximately 15° C. and a relative humidity of 80%. Evaluation is carried out 21 days after the inoculation. In this connection, 0% means a degree of effectiveness corresponding to that of the control, while a degree of effectiveness of 100% means that no infestation is observed.

Compound | chromatographic logP [1] | pest or weed control at 100 ppm (Alternaria solani) [%] | pest or weed control at 100 ppm (Uromyces appendiculatus) [%] | pest or weed control at 500 ppm (Sphaerotheca fuliginea) [%] | pest or weed control at 500 ppm (Puccinia triticina) [%] | pest or weed control at 500 ppm (Septoria tritici) [%]
CCC(c1ccccc1)c1nsc(Oc2cc(C)c(N=CN(C)CC)cc2C)n1 (stereo not drawn) [Example 6, N′-(2,5-dimethyl-4-{[3-(1-phenylpropyl)-1,2,4-thiadiazol-5-yl]oxy}phenyl)-N-ethyl-N-methylimidoformamide] | 2.08 | ≥ 70 | ≥ 70 | ≥ 70 | ≥ 70 | ≥ 70
CCC(c1ccccc1)c1nsc(Oc2cc(C)c(N=CN3CCCCC3)cc2C)n1 (stereo not drawn) [Example 7, 2,5-dimethyl-4-{[3-(1-phenylpropyl)-1,2,4-thiadiazol-5-yl]oxy}-N-(piperidin-1-ylmethylidene)aniline] | 2.21 | ≥ 70 | ≥ 70 | ≥ 70 | ≥ 70 | ≥ 70
Cc1cc(Oc2nc(C(C)c3ccc(Cl)cc3)ns2)c(Cl)cc1N=CN(C)C(C)C (stereo not drawn) [Example 22, N′-[5-chloro-4-({3-[1-(4-chlorophenyl)ethyl]-1,2,4-thiadiazol-5-yl}oxy)-2-methylphenyl]-N-methyl-N-(propan-2-yl)imidoformamide] | 2.52 | ≥ 70 | ≥ 70 |  | ≥ 70 | 
Cc1cc(Oc2nc(C(C)(C)c3ccc(Cl)cc3)ns2)c(C)cc1N=CN(C)C(C)C [Example 27, N′-[4-({3-[2-(4-chlorophenyl)propan-2-yl]-1,2,4-thiadiazol-5-yl}oxy)-2,5-dimethylphenyl]-N-methyl-N-(propan-2-yl)imidoformamide] | 2.71 | ≥ 70 | ≥ 70 | ≥ 70 |  | 
Cc1cc(Oc2nc(C3(c4ccc(Cl)cc4)CC3)ns2)c(C)cc1N=CN(C)C(C)C [Example 39, N′-[4-({3-[1-(4-chlorophenyl)cyclopropyl]-1,2,4-thiadiazol-5-yl}oxy)-2,5-dimethylphenyl]-N-methyl-N-(propan-2-yl)imidoformamide] | 2.57 | ≥ 70 |  | ≥ 70 | ≥ 70 | ≥ 70
Cc1cc(Oc2nc(Cc3ccccc3C(F)(F)F)ns2)c(C)cc1N=CN1CCCCC1 [Example 43, 2,5-dimethyl-N-(piperidin-1-ylmethylidene)-4-({3-[2-(trifluoromethyl)benzyl]-1,2,4-thiadiazol-5-yl}oxy)aniline] | 2.15 | ≥ 70 | ≥ 70 | ≥ 70 | ≥ 70 | 
Cc1cc(Oc2nc(C3(c4ccc(Cl)cc4)CC3)ns2)c(Cl)cc1N=CN1CCCCC1 [Example 44, 5-chloro-4-({3-[1-(4-chlorophenyl)cyclopropyl]-1,2,4-thiadiazol-5-yl}oxy)-2-methyl-N-(piperidin-1-ylmethylidene)aniline] | 2.76 | ≥ 70 |  | ≥ 70 | ≥ 70 | ≥ 70
Cc1cc(Oc2nc(Cc3ccc4c(c3)OCO4)ns2)c(C)cc1N=CN1CCCCC1 [Example 45, 4-{[3-(1,3-benzodioxol-5-ylmethyl)-1,2,4-thiadiazol-5-yl]oxy}-2,5-dimethyl-N-(piperidin-1-ylmethylidene)aniline] | 1.84 | ≥ 70 |  | ≥ 70 | ≥ 70 | ≥ 70
CCN(C)C=Nc1cc(C)c(Oc2nc(Cc3ccc4c(c3)OCO4)ns2)cc1C [Example 46, N′-(4-{[3-(1,3-benzodioxol-5-ylmethyl)-1,2,4-thiadiazol-5-yl]oxy}-2,5-dimethylphenyl)-N-ethyl-N-methylimidoformamide] | 1.65 | ≥ 70 |  | ≥ 70 | ≥ 70 | ≥ 70
